# Experimental data taken from US20210161842A1, “ABSCISIC ACID FOR THE TREATMENT OF SKIN DISEASES” (priority 2018, published 2021).
# Key:
# [1] = system: lesional skin biopsies from psoriasis patients; test: Inflammatory marker mRNA in full-thickness lesional skin biopsies of psoriasis patients (ex vivo, RT-PCR); format: cell-based, human; conditions: patient with psoriatic plaque; 8 days at 37° C.; ABA 2 μL/ml; dexamethasone as control
# Method: (§1) In skin biopsies of patients with plaque psoriasis and from patients with atopic dermatitis, it was determined the expression of several inflammatory markers (Interleukin 23A (IL-23A), C-X-C motif chemokine 10 (CXCL10), Interleukin 8 (IL-8), Interleukin 20 (IL-20), Intercellular Adhesion Molecule 1 (ICAM-1), LNC2, DEF-4, Keratin 16 (K-16), Interferon gamma (IFNg) and Interleukin 17A (IL-17A) using commercially available PCR tools for their determinations (RT-PCR by RNeasy Fibrous Tissue Mini kit and cDNA Archive kit, Sigma, ABlprism 7900HT and TaqMan probes). As a control, dexamethasone was used.
# (§2) Full-thickness lesional skin biopsies from untreated atopic dermatitis and psoriasis patients were incubated in KBM medium supplemented with Ca2Cl for 8 days at 37° C., conditions that preserve human skin lesional in vitro. The different culture conditions were media, ABA (2 μL/ml (+)-(S)-cis,trans-abscisic acid). Medium was changed every 2-3 days. After incubation biopsies were cryopreserved in OCT at −80 until total mRNA was extracted with miRNeasy kit (Qiagen) according to manufacturer's protocol. RNA quality and quantity were checked using Nanodrop. RNA was conserved in RNase free water at −80° C. until analysis. RNA was converted to cDNA using the HighCapacity cDNA Reverse Transcription Kits (Applied Biosystems). Quantitative PCR was performed using TaqMan PreAmp Master Mix Kit (Applied Bioscience) and the TaqMan Gene Expression Master Mix (Applied Bioscience) following the manufacturers' protocols. Gene expression was normalized to the house-keeping gene Glyceraldehyde 3-phosphate dehydrogenase (GADPH) and normalized for each condition as 1,8e (Ct GADPH-Ct target gene) ×10000. […]
# This cell culture lysate was a callus cell lysate and it was used at a final concentration of 20 μg/ml of media (KBM medium supplemented with Ca2Cl as in the assay with ABA alone). As positive or comparative control, dexamethasone (1 μM in the culture) was used.
# (§3) Patients from which biopsies were obtained included 5 psoriatic cases and 3 atopic dermatitis cases.
# [2] = system: lesional skin biopsies from atopic dermatitis patients; test: Inflammatory marker mRNA in full-thickness lesional skin biopsies of atopic dermatitis patients (ex vivo, RT-PCR); format: cell-based, human; conditions: patient with atopic dermatitis plaque; 8 days at 37° C.; ABA 2 μL/ml; dexamethasone as control
# Method: as §1, §2, §3
# [3] = system: Tumoral necrosis factor alpha (TNF-α) in THP-1; test: TNF-α levels (ELISA) in THP-1 monocytes inflamed with IL-17 and LPS; format: cell-based, human; conditions: IL-17 3 ng/ml + LPS 10 μg/ml 6 hours, then 24 hours; lysate 200, 20, 1 and 0.1 μg/ml (all doses); dexamethasone 10 μM
# Method: (§4) In human monocytes line THP-1 (derived from patients with acute monocytic leukemia) inflammation was induces with IL-17 (3 ng/ml of culture) and lipopolysaccharide (LPS; 10 μg/ml) for 6 hours. After that different doses of the C. longa callus lysate were added (200 μg/ml, 20 μg/ml, 1 μg/ml and 0.1 μg/ml) for 24 hours. The assay was performed in 96-well plates. Tumoral necrosis factor alpha (TNF-α) and interleukine-8 (IL-8) levels were quantified by ELISA (fluorimetry, BD OpEIA, USA). One control was an assay with only the inflammatory agents at the same concentration to induce inflammation. Another control was were dexamethasone (10 μM)+Il-17/LPS.
# [4] = system: interleukine-8 (IL-8) in THP-1; test: IL-8 levels (ELISA) in THP-1 monocytes inflamed with IL-17 and LPS; format: cell-based, human; conditions: IL-17 3 ng/ml + LPS 10 μg/ml 6 hours, then 24 hours; lysate 200, 20, 1 and 0.1 μg/ml (all doses); dexamethasone 10 μM
# Method: as §4
# [5] = system: Pseudomonas aeruginosa CECT 116; test: cfu in P. aeruginosa culture (bacteriostatic/bactericide effect); format: cell-based; conditions: methyl jasmonate alone
# Method: (§5) In this example several concentrations of ABA ((+)-(S)-cis,trans-abscisic acid (synonym of (S)-5-(1-hydroxy-2,6,6-trimethyl-4-oxo-2-cyclohexen-1-yl)-3-methyl-(2Z,4E)-pentadienoic acid)) (60 μg/ml, 30 μg/ml, 15 μg/ml, 5 μg/ml) were tested in a culture of P. acnes. Different amounts of the Morinda citrifolia cell lysate disclosed in Example 6 below were also tested in the same conditions (60%, 30%, 10%, 1%, 0.5%) by weight of cell lysate in the P. acnes culture. […] The same protocol was followed with a culture of S. aureus and with a culture of M. furfur. Data are shown in next Tables 1.1 to 1.6, where bacteriostatic and bactericide concentrations are listed. Underlined concentrations are the considered bacteriostatic or fungistatic amounts and that they avoid biofilm formation.
# S. aureus, P. aeruginosa, P. acnes, and M. furfur subcultures were carried out from the stock by streaking onto determined medium and incubated according to the conditions specified for each of the microorganisms according to standard procedures and as indicated below: […]
# Inventors also tested the effect of methyl jasmonate in P. acnes, S. aureus, M. furfur and P. aeruginosa. […] A bactericide effect was detected at 60% w/w.
# [6] = system: Propionibacterium acnes DSM 1897; test: cfu in P. acnes culture 24 hours after inoculum (bacteriostatic/bactericide effect); format: cell-based; conditions: inoc. day 320000, control 1490000
# Method: as §5
# (§6) S. aureus, P. aeruginosa, P. acnes, and M. furfur subcultures were carried out from the stock by streaking onto determined medium and incubated according to the conditions specified for each of the microorganisms according to standard procedures and as indicated below:
# (§7) Further it was tested a composition comprising 30% of Morinda citrifolia cell lysate and 30×10^−4% of abscisic acid ((+)-(S)-cis,trans-abscisic acid), glycerine and preservatives (q.s. 100%) in cultures of P. acnes, S. aureus, P. aeruginosa and M. furfur. The composition was used in the microbial culture at 5% and at 10% of the culture. […]
# [7] = system: Staphylococcus aureus ATCC 6538; test: cfu in S. aureus culture 24 hours after inoculum (bacteriostatic/bactericide effect); format: cell-based; conditions: ABA 60 μg/ml, inoc. day 520000, control 3310000
# Method: as §5, §6, §7
# [8] = system: Malassezia furfur ATCC 14521; test: cfu in M. furfur culture 24 hours after inoculum (fungistatic/fungicide effect); format: cell-based; conditions: inoc. day 420000, control 1470000
# Method: as §5, §6, §7
# [9] = system: Candida albicans DSM 3454; test: cfu in C. albicans culture (fungistatic/fungicide effect); format: cell-based; conditions: ABA 60 μg/ml; inoc. day 264000, control 456500
# Method: (§8) Following the same scheme and procedure as in Examples 1-3 above, ABA 8((+)-(S)-cis,trans-abscisic acid)) and combinations of ABA with cell culture lysates or methyl jasmonate were tested on several microorganisms forming biofilms. As before, underlined concentrations are the considered bacteriostatic or fungistatic amounts and that they avoid biofilm formation.
# (§9) Biofilm generation conditions and medium for the growth of the bacteria were those recommended by the supplier of each microorganism.
# [10] = system: Streptococcus mutans DSM 20523; test: cfu in S. mutans culture (bacteriostatic/bactericide effect); format: cell-based; conditions: inoc. day 200000, control 109000 × 10
# Method: as §8, §9
# [11] = system: Epidermophytum floccosum DSM 10709; test: cfu in E. floccosum culture (fungistatic effect); format: cell-based; conditions: ABA 60 μg/ml; inoc. day 136000, control 587500
# Method: as §8, §9
# [12] = system: Candida albicans DSM 3454; test: C. albicans biofilm on glass coupons (and planktonic growth in suspension); format: cell-based; conditions: ABA 60 μg/ml; inoc. day 184000, control 460000
# Method: (§10) Generation of representative biofilms on borosilicate glass coupons (12.7 mm diameter and a thickness of 3.7 mm) by immersion of the coupons in a suspension of each microorganism with culture medium and the compounds of interest was tested. Evaluation of the antibiofilm properties and study of adhesion, growth and viability of biofilms on the coupons was analyzed by fluorescence staining technique and visualization of live/dead microbial was done by Laser Scanning Confocal Microscopy. The sampling and analysis of coupons to determine biofilm population density was recorded as colony-forming units (cfu) per coupon. In parallel, planktonic cells quantification in suspension was also determined.
# (§11) For the determination of biofilm populations the microbial population adhered to the coupon surface were quantified by dilution and plating after biofilm disaggregation process by sonication and vortex cycles. The planktonic cells (suspension) were determined by dilution and plating. The controls were, respectively the cells on coupons or in suspension after 5 days without any treatment.
# (§12) Following procedure as disclosed in Example 3, particular compositions comprising ABA ((+)-(S)-cis,trans-abscisic acid) and cell lysate of a plant cell culture of Morinda citrifolia were also tested in an assay on glass coupons that also served as example of biofilm formation on abiotic surfaces. […]
# [13] = system: Epidermophytum floccosum DSM 10709; test: E. floccosum biofilm on glass coupons (and planktonic growth in suspension); format: cell-based; conditions: ABA 60 μg/ml; inoc. day 96667, control 374333
# Method: as §10, §11, §12
Molecule,"CXCL10 mRNA, % of inhibition vs Media (normalized) [1] [%]","DEF-4 mRNA, % of inhibition vs Media (normalized) [1] [%]","ICAM-1 mRNA, % of inhibition vs Media (normalized) [1] [%]","IFNg mRNA, % of inhibition vs Media (normalized) [1] [%]","IL-8 mRNA, % of inhibition vs Media (normalized) [1] [%]","IL-17A mRNA, % of inhibition vs Media (normalized) [1] [%]","IL-20 mRNA, % of inhibition vs Media (normalized) [1] [%]","K-16 mRNA, % of inhibition vs Media (normalized) [1] [%]","LNC2 mRNA, % of inhibition vs Media (normalized) [1] [%]","CCL13 mRNA, % of inhibition vs Media (normalized) [2] [%]","CCL17 mRNA, % of inhibition vs Media (normalized) [2] [%]","CCL18 mRNA, % of inhibition vs Media (normalized) [2] [%]","CCL26 mRNA, % of inhibition vs Media (normalized) [2] [%]","FLG mRNA, % of inhibition vs Media (normalized) [2] [%]","IFNg mRNA, % of inhibition vs Media (normalized) [2] [%]","IL-13 mRNA, % of inhibition vs Media (normalized) [2] [%]","K16 mRNA, % of inhibition vs Media (normalized) [2] [%]","LOR mRNA, % of inhibition vs Media (normalized) [2] [%]",further results
"C[C@@H]1C[C@H]2[C@@H]3CCC4=CC(=O)C=C[C@]4(C)[C@@]3(F)[C@@H](O)C[C@]2(C)[C@@]1(O)C(=O)CO [dexamethasone, reference compound]",8.7,−15.7,17.1,72.7,−70.1,116.9,5.5,27.8,96.3,28.4,−81.4,−9.1,−34.0,270.4,−100.0,−100.0,−39.8,189.2,TNF-α levels in relation to inflamed cells [3]: −56%; IL-8 levels in relation to inflamed cells [4]: −33%
CC/C=C\CC1C(=O)CCC1CC(=O)OC (centres unmarked) [methyl jasmonate],–,–,–,–,–,–,–,–,–,–,–,–,–,–,–,–,–,–,percentage by weight in the culture media with bactericide effect [5]: 60 % w/w
"(+)-(S)-cis,trans-abscisic acid [ABA]",140.1,−64.8,−40.6,−10.7,−71.5,9.3,−27.8,24.9,−45.7,−59.2,−70.1,−72.9,−44.2,8.3,9.2,−79.0,−69.1,−45.5,"CFU ([6]; ABA 30 μg/ml): 158001 CFU; CFU ([6]; ABA 60(*) μg/ml, (*)concentration considered bactericide): 100000 CFU; CFU [7]: 585000 CFU; CFU ([8]; ABA 30 μg/ml): 529000 CFU; CFU ([8]; ABA 60(*) μg/ml, (*)considered fungicide): 256000 CFU; CFU [9]: 367500 CFU; CFU ([10]; ABA 50 μg/ml): 289500 CFU; CFU ([10]; ABA 60 μg/ml): 268000 CFU; CFU [11]: 287200 CFU; CFU on coupons [12]: 360000 CFU; CFU on coupons [13]: 243667 CFU"
